The values below come from patent EP0881220A1, “DIARYLSULTAM DERIVATIVES” (priority 1996, dated 1997).

A value given as a limit tells only on which side of the number the result lay.

One assay addresses T1, Dopamine D2 (Rattus norvegicus, UniProt P61169).
T1 construct: dopaminergic receptors was also measured using rat striata; from tissue; host or cells: rat striata
Description: Binding to dopaminergic receptors using rat striata (method of Terai et al.). As to the method: The binding of these compounds to dopaminergic receptors was also measured using rat striata according to the method described by Terai et al. (M. Terai, et al., Eur. J. Pharmacol. 1989, 173, 177).

For the next assay, the target named is sigma 1 binding site (Cavia porcellus, UniProt Q60492).
Another assay addresses T2, sigma 2 binding site (Rattus norvegicus, UniProt Q5U3Y7).
T2 sequence (Q5U3Y7 1-176): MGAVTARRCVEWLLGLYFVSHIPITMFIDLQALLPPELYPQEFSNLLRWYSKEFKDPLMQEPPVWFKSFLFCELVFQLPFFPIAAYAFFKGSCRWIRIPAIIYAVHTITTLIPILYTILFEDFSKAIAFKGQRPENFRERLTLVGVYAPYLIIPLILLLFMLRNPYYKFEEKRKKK
Description: Sigma 2 selective receptor binding inhibition assay with [^3H]-di-o-tolylguanidine. The settings on record: for S2/S1 Ratio: ratio of Sigma 2 Ki to Sigma 1 Ki; for Ki: read-out: Sigma 2 Ki(nM ± SEM), [^3H]-DTG 1 nM, rat liver crude P2 membrane fraction, 500 nM pentazocine, 2 hours at 25°C.

sigma 1 binding site, sequence (Q60492 whole entry): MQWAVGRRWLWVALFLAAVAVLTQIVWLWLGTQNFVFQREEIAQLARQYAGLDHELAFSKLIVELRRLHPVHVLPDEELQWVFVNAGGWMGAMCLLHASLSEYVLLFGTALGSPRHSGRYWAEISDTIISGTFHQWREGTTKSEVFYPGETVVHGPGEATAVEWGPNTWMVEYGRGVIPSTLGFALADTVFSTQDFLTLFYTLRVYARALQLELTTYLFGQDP
T1 sequence (P61169 whole entry): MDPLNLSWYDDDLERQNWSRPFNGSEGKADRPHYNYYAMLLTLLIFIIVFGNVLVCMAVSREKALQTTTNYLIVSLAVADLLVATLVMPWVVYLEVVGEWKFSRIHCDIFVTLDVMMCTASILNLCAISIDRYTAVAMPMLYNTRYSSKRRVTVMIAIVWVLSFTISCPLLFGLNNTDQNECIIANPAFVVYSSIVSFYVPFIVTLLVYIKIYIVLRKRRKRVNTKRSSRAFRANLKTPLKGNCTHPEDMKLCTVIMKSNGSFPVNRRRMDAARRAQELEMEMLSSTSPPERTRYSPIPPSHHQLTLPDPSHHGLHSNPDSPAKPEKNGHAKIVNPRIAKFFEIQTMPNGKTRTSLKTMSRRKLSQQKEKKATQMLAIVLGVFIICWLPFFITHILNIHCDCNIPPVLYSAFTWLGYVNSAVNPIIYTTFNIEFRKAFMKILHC

For the molecule `O=C(O)/C=C/C(=O)O.O=S1(=O)c2ccccc2Nc2ccccc2N1CC1CCN(C[C@H](O)C23CC4CC(CC(C4)C2)C3)CC1.O=S1(=O)c2ccccc2Nc2ccccc2N1CC1CCN(C[C@H](O)C23CC4CC(CC(C4)C2)C3)CC1` [Example 2, (R,S)-1-(1-Adamantyl)-2-[4-(6,11-dihydrodibenzo[c,f][1,2,5]thiadiazepin-6-ylmethyl)piperidin-1-yl]ethanol S,S-dioxide hemifumarate], the inhibition constant (Ki) at Dopamine D2 worked out at 450 nM; at sigma 1 binding site, 320 nM; on sigma 2 binding site it was 4.1 nM. For the same molecule, the “S2/S1 Ratio” value on sigma 2 binding site was found to be 0.01.
The like results for `O=C(O)/C=C/C(=O)O.O=S1(=O)c2ccccc2Oc2ccccc2N1CC1CCN(C[C@H](O)C23CC4CC(CC(C4)C2)C3)CC1.O=S1(=O)c2ccccc2Oc2ccccc2N1CC1CCN(C[C@H](O)C23CC4CC(CC(C4)C2)C3)CC1` [Example 10, (R,S)-1-(1-Adamantyl)-2-[4-(6H-dibenzo[b,f][1,4,5]oxathiazepin-6-yl-methyl)piperidin-1-yl]ethanol S,S-dioxide hemi-fumarate] were, in that order, > 1000 nM, 200 nM, 0.76 nM and 0.004.
